Source: the supplement of paper PMC10307832

Tests used:
Assay in all cases: relative viability (nuclei count vs DMSO), 5 days (fraction); higher = more cells survive
FG-4592 + OSI-027 = compound: Cc1nc(C(=O)NCC(=O)O)c(O)c2ccc(Oc3ccccc3)cc12 [FG-4592] + COc1cccc2cc(-c3nc([C@H]4CC[C@H](C(=O)O)CC4)n4ncnc(N)c34)[nH]c12 [OSI-027] (partner 0.5 µM)
How it was run: (§1)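 Relative viability was taken as the ratio of nuclei in treated wells to nuclei in vehicle wells. Lung cancer cell lines in 1536-well plates received compounds by pin tool one day after seeding, either one drug alone or a fixed anchor-drug dose plus five library-drug doses (not always all listed) in √10 steps. Nuclei were counted on 4× images after 5 days of treatment, and values are medians of duplicate plates.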

IU1-47 + OSI-027 = compound: CC1=CC(=C(N1C2=CC=C(C=C2)Cl)C)C(=O)CN3CCCCC3 [IU1-47] + COc1cccc2cc(-c3nc([C@H]4CC[C@H](C(=O)O)CC4)n4ncnc(N)c34)[nH]c12 [OSI-027] (partner 0.5 µM)
How it was run: as §1

IU1-47 + Crizotinib = compound: CC1=CC(=C(N1C2=CC=C(C=C2)Cl)C)C(=O)CN3CCCCC3 [IU1-47] + C[C@@H](Oc1cc(-c2cnn(C3CCNCC3)c2)cnc1N)c1c(Cl)ccc(F)c1Cl [Crizotinib] (partner 1 µM)
How it was run: as §1

IU1-47 + Decitabine = compound: CC1=CC(=C(N1C2=CC=C(C=C2)Cl)C)C(=O)CN3CCCCC3 [IU1-47] + Nc1ncn([C@H]2C[C@H](O)[C@@H](CO)O2)c(=O)n1 [Decitabine] (partner 2 µM)
How it was run: as §1

| Cell Line | relative viability (FG-4592 + OSI-027; first compound 0.08 µM) | relative viability (FG-4592 + OSI-027; first compound 0.253 µM) | relative viability (FG-4592 + OSI-027; first compound 0.8 µM) | relative viability (FG-4592 + OSI-027; first compound 2.53 µM) | relative viability (FG-4592 + OSI-027; first compound 8 µM) | relative viability (IU1-47 + OSI-027; first compound 0.08 µM) | relative viability (IU1-47 + OSI-027; first compound 0.253 µM) | relative viability (IU1-47 + OSI-027; first compound 0.8 µM) | relative viability (IU1-47 + OSI-027; first compound 2.53 µM) | relative viability (IU1-47 + OSI-027; first compound 8 µM) | relative viability (IU1-47 + Crizotinib; first compound 0.08 µM) | relative viability (IU1-47 + Crizotinib; first compound 0.253 µM) | relative viability (IU1-47 + Crizotinib; first compound 0.8 µM) | relative viability (IU1-47 + Crizotinib; first compound 2.53 µM) | relative viability (IU1-47 + Crizotinib; first compound 8 µM) | relative viability (IU1-47 + Decitabine; first compound 0.08 µM) | relative viability (IU1-47 + Decitabine; first compound 0.253 µM) | relative viability (IU1-47 + Decitabine; first compound 0.8 µM) | relative viability (IU1-47 + Decitabine; first compound 2.53 µM) | relative viability (IU1-47 + Decitabine; first compound 8 µM) |
| --- | --- | --- | --- | --- | --- | --- | --- | --- | --- | --- | --- | --- | --- | --- | --- | --- | --- | --- | --- | --- |
| NCI-H2009 | 0.591 | 0.565 | 0.621 | 0.476 | 0.605 | 0.662 | 0.672 | 0.676 | 0.558 | 0.593 | 1 | 1.1 | 0.933 | 1.1 | 1.05 | 0.36 | 0.448 | 0.366 | 0.382 | 0.406 |
| LOU-NH91 | 0.722 | 0.399 | 0.753 | 0.666 | 0.687 | 0.798 | 0.776 | 0.728 | 0.726 | 0.685 | 0.739 | 0.808 | 0.733 | 0.708 | 0.769 | 0.909 | 0.854 | 0.797 | 0.816 | 0.797 |
| NCI-H2405 | 0.506 |  | 0.586 | 0.518 | 0.628 | 0.664 | 0.663 | 0.695 | 0.533 | 0.618 | 0.901 | 0.837 | 0.778 | 0.878 | 0.836 | 0.839 | 0.762 | 0.769 | 0.779 | 0.765 |
| LCLC-97TM1 | 0.665 | 0.397 | 0.716 | 0.488 | 0.395 | 0.62 | 0.551 | 0.531 | 0.583 | 0.513 | 0.461 | 0.339 | 0.458 |  | 0.323 | 0.287 | 0.252 | 0.244 |  | 0.234 |
| NCI-H596 | 0.595 | 0.634 | 0.513 | 0.431 | 0.434 | 0.817 | 0.62 | 0.743 | 0.814 | 0.739 | 1.01 | 1.07 | 1.04 | 0.95 | 0.943 | 1.05 |  | 1.03 | 1.09 | 0.977 |
| NCI-H727 | 0.41 | 0.46 | 0.596 | 0.524 | 0.593 | 0.634 | 0.659 | 0.724 | 0.525 | 0.454 | 0.929 |  | 0.857 | 0.798 | 0.658 | 0.875 | 0.894 | 0.989 | 0.722 | 0.866 |
| H3255 | 0.573 | 0.576 | 0.626 | 0.617 | 0.62 | 0.654 | 0.675 | 0.624 | 0.465 | 0.561 | 0.989 | 1.07 | 0.908 | 0.778 | 0.807 | 0.696 | 0.681 | 0.689 |  | 0.453 |
| SK-MES-1 | 0.568 | 0.585 | 0.546 | 0.483 | 0.453 | 0.668 | 0.674 | 0.606 | 0.348 | 0.509 | 1.08 | 1.04 | 0.908 | 0.984 | 0.994 | 0.329 | 0.405 | 0.3 | 0.409 | 0.38 |
| NCI-H1437 | 0.907 | 0.812 | 0.862 | 0.667 | 0.506 | 0.873 | 0.886 | 0.92 | 0.854 | 0.815 | 0.909 | 0.952 | 0.81 | 0.926 | 0.795 | 0.573 | 0.513 | 0.658 | 0.63 | 0.547 |
| LU99A | 0.332 | 0.276 | 0.296 | 0.267 | 0.27 | 0.246 | 0.303 | 0.337 | 0.298 | 0.317 | 0.503 | 0.538 | 0.538 | 0.739 | 0.617 | 0.968 | 0.824 | 0.852 | 0.883 | 0.768 |
| HCC-827 | 0.677 | 0.727 | 0.8 | 0.669 | 0.593 | 0.944 | 0.895 | 0.85 | 0.889 | 0.543 | 0.89 | 0.955 | 1.01 | 0.961 | 0.904 | 0.336 | 0.323 | 0.351 | 0.31 | 0.31 |
| LK-2 | 0.185 | 0.19 | 0.223 | 0.185 | 0.174 | 0.219 | 0.199 | 0.184 | 0.188 | 0.184 | 0.204 | 0.223 | 0.223 | 0.213 | 0.255 | 0.354 | 0.35 | 0.34 | 0.372 | 0.179 |
| HCC-366 | 0.455 | 0.934 | 0.784 | 0.484 | 0.703 | 1.07 | 0.934 | 1.17 | 0.692 | 1.27 | 0.38 | 0.633 | 0.562 |  | 0.393 | 0.375 | 0.382 | 0.349 | 0.389 | 0.272 |
| BEN | 0.222 | 0.287 | 0.315 | 0.313 | 0.299 | 0.294 | 0.302 | 0.296 |  | 0.268 | 0.841 | 0.99 | 1.03 | 0.816 | 0.752 | 0.713 | 0.729 | 0.848 | 0.507 | 0.668 |
| NCI-H23 | 0.612 | 0.517 | 0.488 | 0.325 | 0.439 | 0.644 | 0.587 | 0.695 | 0.583 | 0.597 | 0.533 | 0.528 | 0.506 | 0.638 | 0.48 | 0.347 |  | 0.312 | 0.319 | 0.302 |
| 201T | 0.683 | 0.662 | 0.738 | 0.815 | 0.704 | 0.747 | 0.784 | 0.886 | 0.813 | 0.832 | 1.08 | 1.04 | 1.05 |  | 1.04 | 0.891 | 0.864 | 0.943 | 0.867 | 0.856 |
| NCI-H2170 | 0.788 | 0.66 | 0.652 | 0.693 | 0.531 | 0.865 | 0.725 | 0.645 | 0.722 | 0.727 | 1.42 | 1.44 | 1.26 | 1.11 | 1.25 | 0.516 | 0.529 | 0.498 | 0.482 | 0.555 |
